# Results: the supplement of paper PMC10307832
# Compound: CCN1CCN(c2ccc(Nc3cc(N(C)C(=O)Nc4c(Cl)c(OC)cc(OC)c4Cl)ncn3)cc2)CC1 [BGJ398] + CS(=O)(=O)N1CCN(Cc2cc3nc(-c4cccc5[nH]ncc45)nc(N4CCOCC4)c3s2)CC1 [Pictilisib] (partner 1 µM)
# Assay: relative viability (nuclei count vs DMSO), 5 days (fraction); higher = more cells survive
# Details: first compound 1 µM
# How it was run: (§1)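 Five library-drug doses in √10 steps were combined with a fixed anchor-drug dose, or a single drug was given alone, by pin tool to lung cancer cell lines in 1536-well plates the day after seeding. Nuclei were stained and counted after 5 days. Relative viability is the nuclei count in treated wells over that in vehicle wells, taken as the median of duplicate plates.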
row,Cell Line,relative viability
1,EKVX,0.46

# Compound: CCN1CCN(c2ccc(Nc3cc(N(C)C(=O)Nc4c(Cl)c(OC)cc(OC)c4Cl)ncn3)cc2)CC1 [BGJ398] + NC(=O)Nc1cc(-c2cccc(F)c2)sc1C(=O)N[C@H]1CCCNC1 [AZD7762] (partner 0.2 µM)
# Assay: as above
# Details: first compound 0.01 µM
# How it was run: as §1
row,Cell Line,relative viability
1,NCI-H2405,0.84
2,HOP-62,0.651
3,HCC-44,0.98
4,LU99A,0.429
5,BEN,0.729
6,HARA,0.429
7,HCC-78,0.609
8,NCI-H322M,0.689
9,LCLC-97TM1,0.251
10,A-427,0.688
11,NCI-H1734,0.504
12,NCI-H460,0.73
13,NCI-H2347,0.811
14,NCI-H1395,0.372
15,201T,0.657
16,NCI-H1915,0.696

row,Cell Line,relative viability
1,HCC-827,0.26
2,LXF-289,1.02
3,NCI-H23,0.228
4,NCI-H647,0.642
5,NCI-H1651,0.465
6,EPLC-272H,0.209
7,NCI-H1792,0.678
8,NCI-H1355,0.697
9,NCI-H3122,0.51
10,NCI-H1437,1.13
11,NCI-H1755,0.487
12,HCC-15,1.15
13,NCI-H1793,0.466
14,PC-14,0.403
15,EKVX,0.778

# Same assay, conditions: first compound 0.03162 µM
row,Cell Line,relative viability
1,NCI-H2405,0.857
2,HOP-62,0.703
3,HCC-44,1
4,LU99A,0.336
5,BEN,0.648
6,HARA,0.418
7,HCC-78,0.536
8,NCI-H322M,0.46
9,LCLC-97TM1,0.217
10,A-427,0.685
11,NCI-H441,1.07
12,NCI-H1734,0.56
13,NCI-H460,0.655
14,NCI-H2347,0.801
15,NCI-H1395,0.366
16,201T,0.595
17,NCI-H1915,0.665
18,LXF-289,1.03
19,NCI-H23,0.267
20,NCI-H647,0.489
21,NCI-H1651,0.442
22,EPLC-272H,0.21
23,NCI-H1792,0.595
24,NCI-H1355,0.818
25,NCI-H3122,1
26,NCI-H1437,1.23
27,NCI-H1755,0.496
28,HCC-15,1.06
29,NCI-H1793,0.406
30,EKVX,0.772

# Same assay, conditions: first compound 0.1 µM
row,Cell Line,relative viability
1,NCI-H2405,0.781
2,HOP-62,0.829
3,HCC-44,1.01
4,LU99A,0.4
5,BEN,0.687
6,HARA,0.461
7,HCC-78,0.557
8,NCI-H322M,0.577
9,LCLC-97TM1,0.225
10,A-427,0.599
11,NCI-H441,1.25
12,NCI-H1734,0.538
13,NCI-H460,0.593
14,NCI-H2347,0.837
15,NCI-H1395,0.355
16,201T,0.63

row,Cell Line,relative viability
1,NCI-H1915,0.691
2,HCC-827,0.212
3,LXF-289,1.06
4,NCI-H23,0.252
5,NCI-H647,0.497
6,NCI-H1651,0.478
7,EPLC-272H,0.252
8,NCI-H1792,0.784
9,NCI-H1355,0.748
10,NCI-H3122,1.04
11,NCI-H1437,1.14
12,NCI-H1755,0.384
13,HCC-15,1.24
14,NCI-H1793,0.473
15,PC-14,0.387
16,EKVX,0.746

# Same assay, conditions: first compound 0.3162 µM
row,Cell Line,relative viability
1,NCI-H2405,0.757
2,HOP-62,0.601
3,HCC-44,1.02
4,LU99A,0.234
5,BEN,0.583
6,HARA,0.373
7,HCC-78,0.61
8,NCI-H322M,0.607
9,LCLC-97TM1,0.208
10,A-427,0.43
11,NCI-H441,0.961
12,NCI-H1734,0.554
13,NCI-H460,0.53
14,NCI-H2347,0.814
15,NCI-H1395,0.352
16,201T,0.521

row,Cell Line,relative viability
1,NCI-H1915,0.576
2,HCC-827,0.121
3,LXF-289,0.978
4,NCI-H23,0.232
5,NCI-H647,0.326
6,NCI-H1651,0.374
7,EPLC-272H,0.174
8,NCI-H1792,0.646
9,NCI-H1355,0.677
10,NCI-H3122,1.02
11,NCI-H1437,1.17
12,NCI-H1755,0.339
13,HCC-15,1.17
14,NCI-H1793,0.434
15,PC-14,0.176
16,EKVX,0.686

# Same assay, conditions: first compound 1 µM
row,Cell Line,relative viability
1,NCI-H2405,0.656
2,HOP-62,0.916
3,HCC-44,0.862
4,LU99A,0.273
5,BEN,0.578
6,HARA,0.334
7,HCC-78,0.608
8,NCI-H322M,0.601
9,LCLC-97TM1,0.249
10,A-427,0.565
11,NCI-H441,1.56
12,NCI-H1734,0.624
13,NCI-H460,0.621
14,NCI-H2347,0.851
15,NCI-H1395,0.352
16,201T,0.747

row,Cell Line,relative viability
1,NCI-H1915,0.724
2,HCC-827,0.256
3,LXF-289,1.06
4,NCI-H23,0.225
5,NCI-H647,0.373
6,NCI-H1651,0.471
7,EPLC-272H,0.306
8,NCI-H1792,0.718
9,NCI-H1355,0.713
10,NCI-H3122,1.17
11,NCI-H1437,1.19
12,NCI-H1755,0.399
13,HCC-15,1.39
14,NCI-H1793,0.419
15,PC-14,0.249
16,EKVX,0.634

# Compound: C1=CC2=NC=CN=C2C=C1/C=C/3\C(=O)NC(=O)S3 + O=C(c1cc(Cc2n[nH]c(=O)c3ccccc23)ccc1F)N1CCN(C(=O)C2CC2)CC1 [Olaparib] (partner 8 µM)
# Assay: as above
# Details: first compound 0.02 µM
# How it was run: as §1
row,Cell Line,relative viability
1,NCI-H2405,0.791
2,HOP-62,0.481
3,HCC-44,0.9
4,LU99A,0.28
5,BEN,1.09
6,HARA,0.899
7,HCC-78,0.792
8,NCI-H322M,0.733
9,LCLC-97TM1,0.354
10,A-427,0.71
11,NCI-H441,0.539
12,NCI-H1734,0.613
13,NCI-H460,0.391
14,NCI-H2347,0.528
15,NCI-H1395,0.43
16,201T,0.878

row,Cell Line,relative viability
1,NCI-H1915,0.25
2,HCC-827,0.654
3,LXF-289,0.993
4,NCI-H23,0.236
5,NCI-H647,0.438
6,NCI-H1651,0.181
7,EPLC-272H,0.865
8,NCI-H1792,0.319
9,NCI-H1355,0.656
10,NCI-H3122,0.552
11,NCI-H1437,0.584
12,NCI-H1755,0.774
13,HCC-15,0.699
14,NCI-H1793,0.805
15,PC-14,0.25
16,EKVX,0.668

# Same assay, conditions: first compound 0.06325 µM
row,Cell Line,relative viability
1,NCI-H2405,0.999
2,HOP-62,0.389
3,HCC-44,1.07
4,LU99A,0.416
5,BEN,1.05
6,HARA,0.54
7,HCC-78,0.72
8,NCI-H322M,0.827
9,LCLC-97TM1,0.372
10,A-427,0.83
11,NCI-H441,0.708
12,NCI-H460,0.361
13,NCI-H2347,0.583
14,NCI-H1395,0.427
15,201T,0.81
16,NCI-H1915,0.248
17,HCC-827,0.528
18,LXF-289,0.997
19,NCI-H23,0.326
20,NCI-H647,0.532
21,NCI-H1651,0.154
22,EPLC-272H,0.64
23,NCI-H1355,0.766
24,NCI-H3122,0.679
25,NCI-H1437,0.648
26,NCI-H1755,0.86
27,HCC-15,0.612
28,NCI-H1793,0.752
29,PC-14,0.363
30,EKVX,0.828

# Same assay, conditions: first compound 0.2 µM
row,Cell Line,relative viability
1,NCI-H2405,0.851
2,HOP-62,0.357
3,HCC-44,0.924
4,LU99A,0.276
5,BEN,1.02
6,HARA,0.687
7,HCC-78,0.786
8,NCI-H322M,0.767
9,LCLC-97TM1,0.36
10,A-427,0.716
11,NCI-H441,0.559
12,NCI-H1734,0.673
13,NCI-H460,0.438
14,NCI-H2347,0.553
15,NCI-H1395,0.464
16,201T,0.844

row,Cell Line,relative viability
1,NCI-H1915,0.281
2,HCC-827,0.585
3,LXF-289,1.06
4,NCI-H23,0.313
5,NCI-H647,0.537
6,NCI-H1651,0.183
7,EPLC-272H,0.971
8,NCI-H1792,0.347
9,NCI-H1355,0.77
10,NCI-H3122,0.568
11,NCI-H1437,0.623
12,NCI-H1755,0.886
13,HCC-15,0.71
14,NCI-H1793,0.801
15,PC-14,0.263
16,EKVX,0.824

# Same assay, conditions: first compound 0.6325 µM
row,Cell Line,relative viability
1,NCI-H2405,0.848
2,HOP-62,0.452
3,HCC-44,0.965
4,LU99A,0.243
5,BEN,1.12
6,HARA,1.06
7,HCC-78,0.861
8,NCI-H322M,0.801
9,LCLC-97TM1,0.334
10,A-427,0.716
11,NCI-H441,0.481
12,NCI-H1734,0.562
13,NCI-H460,0.45
14,NCI-H2347,0.635
15,NCI-H1395,0.5
16,201T,0.828

row,Cell Line,relative viability
1,NCI-H1915,0.249
2,HCC-827,0.593
3,LXF-289,1.01
4,NCI-H23,0.35
5,NCI-H647,0.51
6,NCI-H1651,0.178
7,EPLC-272H,0.898
8,NCI-H1792,0.408
9,NCI-H1355,0.699
10,NCI-H3122,0.556
11,NCI-H1437,0.643
12,NCI-H1755,0.872
13,HCC-15,0.675
14,NCI-H1793,0.779
15,PC-14,0.227
16,EKVX,0.812

# Same assay, conditions: first compound 2 µM
row,Cell Line,relative viability
1,NCI-H2405,0.712
2,HOP-62,0.424
3,HCC-44,0.945
4,LU99A,0.26
5,BEN,1.03
6,HARA,0.615
7,HCC-78,0.619
8,NCI-H322M,0.641
9,LCLC-97TM1,0.281
10,A-427,0.634
11,NCI-H441,0.345
12,NCI-H1734,0.226
13,NCI-H460,0.397
14,NCI-H2347,0.543
15,NCI-H1395,0.438
16,201T,0.866

row,Cell Line,relative viability
1,NCI-H1915,0.258
2,HCC-827,0.662
3,LXF-289,1.01
4,NCI-H23,0.255
5,NCI-H647,0.496
6,NCI-H1651,0.188
7,EPLC-272H,0.542
8,NCI-H1792,0.315
9,NCI-H1355,0.726
10,NCI-H3122,0.619
11,NCI-H1437,0.653
12,NCI-H1755,0.908
13,HCC-15,0.634
14,NCI-H1793,0.702
15,PC-14,0.277
16,EKVX,0.838
